Experimental data reported in patent US5171751A, “Benzofuran/benzofuranalkyl-N-terminal amino hydroxy” (G. D. Searle & Co., priority 1991, dated 1992).
Square brackets hold non-standard residues; d marks the D form. Peptide text beside a SMILES is read from it. * marks the point of attachment. Sta = CC(C)C[C@H](N)[C@@H](O)CC(=O)O; Isovaleryl = CC(C)CC(=O)*

What was measured:
human renin = target: T1, human renin (Homo sapiens, UniProt P00797); test: In vitro human renin inhibition (angiotensin I determined by radioimmunoassay); assay type: biochemical; settings: 37° C., pH 7.4, two hours
T1 construct: purchased National Institute for Biological Standards, London
T1 sequence (P00797 67-406): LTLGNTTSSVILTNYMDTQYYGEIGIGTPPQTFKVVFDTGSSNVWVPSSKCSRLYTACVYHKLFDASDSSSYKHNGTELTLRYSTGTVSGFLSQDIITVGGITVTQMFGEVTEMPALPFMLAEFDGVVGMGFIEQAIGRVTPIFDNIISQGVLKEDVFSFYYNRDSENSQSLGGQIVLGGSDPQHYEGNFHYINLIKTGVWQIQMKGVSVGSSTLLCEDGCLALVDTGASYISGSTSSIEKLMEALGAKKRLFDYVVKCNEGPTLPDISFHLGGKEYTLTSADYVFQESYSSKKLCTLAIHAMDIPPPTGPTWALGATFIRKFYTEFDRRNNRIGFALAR
Description: Compounds of Formula I were evaluated as inhibitors of human renin in an in vitro assay. This human renin inhibition test has been previously described in detail Papaioannou et al., Clinical and Experimental Hypertension, A7(9), 1243-1257 (1985)]. Human renin was obtained from the National Institute for Biological Standards, London. An incubation mixture was prepared containing in a total volume of 0.25 mL 100 mM Tris-acetate buffer at pH 7.4, 25×10^-6 Goldblatt units of renin, 0.05mL of plasma from human volunteers taking oral contraceptives, 6.0 mM sodium EDTA, 2.4 mM phenylmethyl sulfonyl fluoride, 1.5 mM 8-hydroxyquinoline, 0.4 mg/mL BSA, and 0.024 mg/mL neomycin sulfate. This mixture was incubated for two hours at 37° C. in the presence or absence of renin inhibitors. The produced angiotensin I was determined by radioimmunoassay (New England Nuclear kit). Test compounds to be assayed were dissolved in DMSO and diluted with 100mM Tris-acetate buffer at pH 7.4 containing 0.5% BSA to the appropriate concentration. The final concentration of organic solvent in the reaction mixture was less than 1%. Control incubations at 37° C. were used to correct for effects of organic solvent on renin activity.

renin = settings: cited from earlier work
hog renin = settings: after injection of hog renin into nephrectomized rats; cited from earlier work
cathepsin D = settings: cited from earlier work
pepsin = settings: cited from earlier work
acid proteases = settings: cited from earlier work

Q: With CC(C)C[C@H](O)[C@H](O)[C@H](CC1CCCCC1)NC(=O)[C@H](C)CNC(=O)CCc1c[nH]c2ccccc12 [Example 22, N-[3-[[1S, 1R^* -(cyclohexylmethyl)-2S^*, 3R^* -dihydroxy-5-methylhexyl]amino]-2S^* -methyl-3-oxopropyl]-1H-indole-3-propanamide] as the molecule, how does the IC50 (human renin) read?
A: 0.43 µM

Q: For CC(C)CC(=O)N[C@H](C(=O)N[C@H](C(=O)N[C@@H](CC(C)C)[C@@H](O)CC(=O)N[C@@H](C)C(=O)N[C@@H](CC(C)C)[C@@H](O)CC(=O)O)C(C)C)C(C)C [pepstatin] (Isovaleryl-VV[Sta]A[Sta]-OH), which inhibitor of renin (renin) is on record?
A: inhibitor

Q: What about the “reduction of blood pressure in vivo” value (hog renin) of the same molecule?
A: reduce blood pressure in vivo

Q: What about the “inhibitor of cathepsin D” value (cathepsin D) of the same molecule?
A: inhibitor

Q: And the inhibitor of pepsin (pepsin)?
A: inhibitor

Q: What about the “inhibiting acid proteases in addition to renin” value (acid proteases) of the same molecule?
A: inhibiting acid proteases in addition to renin
